# From patent publication US4113850A, “Composition for the diagnostic visualization of neoplastic tissues” (Solco Basel AG, priority 1974, dated 1978)
# Where “and” joins values, the source holds several entries; their conditions need not be identical. Equal entries are not always repeated. Where two headings read alike, the source gives them in different places.
# Experiments:
# [1] = tested on: neoplastic tissues (tumors and metastases); details: radiopharmaceuticals used up to now; cited from earlier work
# brain tumor [2] = details: cited from earlier work
# [3] = cited from earlier work; for Ray dose for the person examined: radiopharmaceuticals used up to now
# [4] = Stability of the complexes; assay type: physicochemical; details: in solution
# [5] = in vivo, cited from earlier work
# brain tumor [6] = details: literature sources 1-2 of Table 2, cited from earlier work
compound,measurement,setting,value
"COC([CH2][197Hg+])CNC(N)=O.[Cl-] (stereo not drawn) [197Hg-Chlormerodrin, ^197 Hg-chlormerodrin]",Tumor affinity,[1],low and uncertain tumor affinity
same,Human external tumor brain quotient (in vivo),brain tumor [2]; literature sources 1-6 of Table 1,1.2 - 8.7 : 1 and 1.2 - 3.1 : 1
same,Ray dose of the critical organs: Kidney,"[3]; Kidney, hitherto used substances",4370 - 19400 mrad/mCurie
same,Ray dose for the person examined,[3],high ray dose
COC(CNC(N)=O)[CH2][203Hg][Cl] (stereo not drawn) [^203 Hg-chlormerodrin],Tumor affinity,[1],low and uncertain tumor affinity
same,Ray dose for the person examined,[3],high ray dose
tin-technetium-isocitrate complex [Example 1],Stability of complex,[4],stable
^111 indium-citrate complex [Example 7],Stability of complex,[4],stable
O=[75Se]([O-])[O-].[Na+].[Na+] [^75 Se-sodium selenite],Tumor affinity,[1],low and uncertain tumor affinity
same,Ray dose for the person examined,[3],high ray dose
"[O]=[99Tc](=[O])(=[O])[O-] [Example 99mTcO4, ^99m Tc-pertechnetate]",Human external tumor brain quotient (in vivo),"brain tumor [2]; literature sources 1-6 of Table 1, listed as 99mTcO.sbsb.4",1.7 : 1 and 1.3 : 1 and 1.2 - 2.5 : 1
same,Ray dose of the critical organs: Blood,"[3]; Blood, hitherto used substances",17 - 47 mrad/mCurie
same,Ray dose of the critical organs: Colon,"[3]; Colon, hitherto used substances",150 - 290 mrad/mCurie
same,Ray dose of the critical organs: Stomach,"[3]; Stomach, hitherto used substances",40 - 320 mrad/mCurie
same,Ray dose of the critical organs: Thyroid,"[3]; Thyroid, hitherto used substances",100 - 270 mrad/mCurie
same,Concentration in organs,[5]; listed as 99m Tc-pertechnetate,"particularly high concentrations occur in the thyroid but also in the plexus chorioideus (brain), in the salivary glands and in the gastric mucosa"
same,Concentration in organs,[5]; listed as pertechnetate,concentrates above all in the thyroid
same,Human internal tumor brain quotient (after autopsy or on an operation preparation),brain tumor [6],1.8 - 5.3 : 1
same,Human internal tumor brain quotient (after autopsy or on an operation preparation),brain tumor [6]; listed as 99mTcO,0 - 4.3 : 1
O=C([O-])CC(O)(CC(=O)[O-])C(=O)[O-].[67Ga+3] [^67 Gallium citrate],Tumor affinity,[1],low and uncertain tumor affinity
same,Ray dose for the person examined,[3],high ray dose
